# Laboratory results: PubChem BioAssay (NCI)
#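 How tested: cells in 96-well plates exposed to compound for 48 hours at five concentrations. The concentration for 50% growth inhibition is given as GI50. At the TGI there is no net growth.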
# Key:
# Assay in all cases: inhibition of tumour cell growth, NCI panel, 48 h
# A498 renal = tested on: A498 renal
# HOP-92 NSCLC = tested on: HOP-92 NSCLC
# IGROV1 ovarian = tested on: IGROV1 ovarian
# K-562 leukemia = tested on: K-562 leukemia
# OVCAR-4 ovarian = tested on: OVCAR-4 ovarian
# SF-539 CNS = tested on: SF-539 CNS
# SK-MEL-28 melanoma = tested on: SK-MEL-28 melanoma
# SK-MEL-5 melanoma = tested on: SK-MEL-5 melanoma
# SN12C renal = tested on: SN12C renal
# UO-31 renal = tested on: UO-31 renal
Compound,GI50 (A498 renal),TGI (A498 renal),GI50 (HOP-92 NSCLC),TGI (HOP-92 NSCLC),GI50 (IGROV1 ovarian),TGI (IGROV1 ovarian),GI50 (K-562 leukemia),TGI (K-562 leukemia),GI50 (OVCAR-4 ovarian),TGI (OVCAR-4 ovarian),GI50 (SF-539 CNS),TGI (SF-539 CNS),GI50 (SK-MEL-28 melanoma),TGI (SK-MEL-28 melanoma),GI50 (SK-MEL-5 melanoma),TGI (SK-MEL-5 melanoma),GI50 (SN12C renal),TGI (SN12C renal),GI50 (UO-31 renal),TGI (UO-31 renal)
CCCC(C)c1cc(Cc2cc(Cl)cc(Cl)c2O)c(O)c(Cc2cc(Cl)cc(Cl)c2O)c1 (stereo not given),0.243 µM,2 µM,0.128 µM,0.496 µM,2.73 µM,14.5 µM,0.34 µM,11.7 µM,2.02 µM,13.7 µM,1.09 µM,7.28 µM,1.19 µM,10.1 µM,0.428 µM,2.21 µM,0.415 µM,10.4 µM,2.52 µM,10.2 µM
COc1ccc2sc3c(NCCCN(C)C)nc4ccccc4c3c(=O)c2c1,1.38 µM,2.78 µM,1.03 µM,2.47 µM,1.67 µM,3.23 µM,1.8 µM,4.71 µM,1.8 µM,3.82 µM,1.63 µM,3.06 µM,1.78 µM,3.2 µM,1.73 µM,3.12 µM,1.71 µM,3.2 µM,1.47 µM,2.84 µM
CN(C)C(=O)OC(Cn1cncn1)c1ccc(Cl)cc1Cl (stereo not given),,> 100 µM,,> 100 µM,,> 100 µM,,> 100 µM,,> 100 µM,,> 100 µM,,> 100 µM,,> 100 µM,,> 100 µM,,> 100 µM
COc1cccc2c1c(C(=O)C(=O)Nc1cc(C)no1)cn2Cc1ccc(F)cc1,19.6 µM,> 67.5 µM,14.2 µM,> 66 µM,3.68 µM,> 45.8 µM,1.91 µM,> 36.5 µM,24 µM,> 100 µM,7.52 µM,> 80 µM,7.59 µM,> 89.6 µM,3.08 µM,25.6 µM,8.28 µM,> 81.8 µM,8.77 µM,> 100 µM
CCOC(=O)c1cc(NS(=O)(=O)c2ccccc2)cc(C(=O)OCC)c1,> 100 µM,> 100 µM,> 100 µM,> 100 µM,> 100 µM,> 100 µM,> 100 µM,> 100 µM,> 100 µM,> 100 µM,> 100 µM,> 100 µM,> 100 µM,> 100 µM,> 100 µM,> 100 µM,> 100 µM,> 100 µM,> 100 µM,> 100 µM
C#CCOCn1cnc2c(Cl)ncnc21,,> 100 µM,,> 100 µM,,> 100 µM,,> 100 µM,,> 100 µM,,> 100 µM,,> 100 µM,,> 100 µM,,> 100 µM,,> 100 µM
Nc1nc2c(c3ncncc13)C(c1cccc(C(F)(F)F)c1)Cc1ncncc1-2 (stereo not given),3.28 µM,8.75 µM,6.92 µM,57.9 µM,8.06 µM,74.9 µM,3.74 µM,22.8 µM,10.8 µM,> 100 µM,1.98 µM,5.97 µM,11.4 µM,26.9 µM,4.88 µM,17.7 µM,7.66 µM,49.2 µM,7.22 µM,85 µM
CC1=Nc2ccccc2S/C1=C(/C)NNC(=O)C(N)=O,,> 100 µM,,> 100 µM,,> 100 µM,,> 100 µM,,> 100 µM,,> 100 µM,,> 100 µM,,> 100 µM,,> 100 µM,,> 100 µM
CCCC(=O)OC1C(C(O)CO)OC2OC(C)(C)OC21 (stereo not given),,> 100 µM,,> 100 µM,,> 100 µM,,< 3.16 µM,,> 100 µM,,> 100 µM,,> 100 µM,,> 100 µM,,> 100 µM,,> 100 µM
O=C1[C@H]2ON(c3ccccc3)C(c3ccccc3Cl)[C@H]2C(=O)N1c1ccc(Cc2ccc(N3C(=O)[C@@H]4ON(c5ccccc5)C(c5ccccc5Cl)[C@@H]4C3=O)cc2)cc1 (stereo not given in full),,> 100 µM,,> 100 µM,,> 100 µM,,> 100 µM,,> 100 µM,,> 100 µM,,> 100 µM,,> 100 µM,,> 100 µM,,> 100 µM
CCCCCCCCCCCC(=O)OCC1OC(n2cc(F)c(=O)[nH]c2=O)C(NC(=O)OCc2ccccc2)C(OC(=O)CCCCCCCCCCC)C1O (stereo not given),,> 100 µM,,> 100 µM,,> 100 µM,,> 100 µM,,> 100 µM,,> 100 µM,,> 100 µM,,> 100 µM,,> 100 µM,,> 100 µM
CC1C=C(OC(=O)c2ccccc2)C(=O)C(n2cc(F)c(=O)[nH]c2=O)O1 (stereo not given),,> 100 µM,,> 100 µM,,> 100 µM,,> 100 µM,,> 100 µM,,> 100 µM,,> 100 µM,,> 100 µM,,> 100 µM,,> 100 µM
Oc1cccc2ccc(N/N=C/c3cc(CN4CCCCC4)c(O)c4ncccc34)nc12,0.433 µM,14.1 µM,0.0165 µM,0.0857 µM,0.173 µM,18.4 µM,0.0383 µM,11.1 µM,0.162 µM,1.6 µM,0.0481 µM,2.68 µM,0.362 µM,15.9 µM,0.0239 µM,0.0559 µM,0.0931 µM,12.9 µM,0.0292 µM,1.71 µM
CN1CCC(n2cnc(-c3ccc(F)cc3)c2-c2ccnc(NCCO)n2)CC1,14.8 µM,> 25 µM,5.43 µM,> 25 µM,18.1 µM,> 25 µM,18.3 µM,> 25 µM,> 20.9 µM,> 25 µM,> 25 µM,> 25 µM,> 25 µM,> 25 µM,17.2 µM,> 25 µM,> 18.9 µM,> 25 µM,13.6 µM,> 25 µM
O=C(NCCO)Nc1ccc(-c2nc(N3CCOCC3)c3cccn3n2)cc1,< 0.0373 µM,0.125 µM,0.0466 µM,1.09 µM,0.167 µM,1.08 µM,2.8 µM,> 100 µM,0.0892 µM,3.75 µM,0.315 µM,5.72 µM,0.108 µM,4.59 µM,0.236 µM,3.67 µM,0.567 µM,> 100 µM,0.0573 µM,1.63 µM
